Reference: the supplement of paper PMC13386468

How the values were obtained:
Assay in all cases: IC50 for competition of protein binding to Kinobeads
Conditions in all cases: assay detail: Kinobeads competition in P. falciparum blood-stage lysate
UniProt Q8II60 = target: UniProt Q8II60
UniProt Q8I4Z4 = target: UniProt Q8I4Z4
UniProt Q8IBI0 = target: UniProt Q8IBI0
UniProt P62344 = target: UniProt P62344
UniProt Q8IHT4 = target: UniProt Q8IHT4
UniProt C0H570 = target: UniProt C0H570
UniProt Q8I5X8 = target: UniProt Q8I5X8
UniProt C6KTB1 = target: UniProt C6KTB1
UniProt Q8IHR5 = target: UniProt Q8IHR5
UniProt Q8IIV2 = target: UniProt Q8IIV2
UniProt Q8IIM4 = target: UniProt Q8IIM4
UniProt Q8I5Q6 = target: UniProt Q8I5Q6
UniProt Q8I320 = target: UniProt Q8I320
UniProt Q8I415 = target: UniProt Q8I415
UniProt O97256 = target: UniProt O97256
A0A146LZZ4 = target: A0A146LZZ4
UniProt Q8IDZ2 = target: UniProt Q8IDZ2
UniProt Q8I5X7 = target: UniProt Q8I5X7
UniProt Q8I3Y9 = target: UniProt Q8I3Y9
UniProt Q8IBQ9 = target: UniProt Q8IBQ9
UniProt Q8IKM5 = target: UniProt Q8IKM5
UniProt Q8I2X4 = target: UniProt Q8I2X4
UniProt Q8I510 = target: UniProt Q8I510
UniProt Q8IE41 = target: UniProt Q8IE41
UniProt Q8IJG6 = target: UniProt Q8IJG6
UniProt C0H4P4 = target: UniProt C0H4P4
UniProt Q8IKA6 = target: UniProt Q8IKA6
UniProt Q8I3Z1 = target: UniProt Q8I3Z1
UniProt Q8I0U7 = target: UniProt Q8I0U7
UniProt Q8IJR8 = target: UniProt Q8IJR8
UniProt Q8ILP6 = target: UniProt Q8ILP6
UniProt Q8I2W3 = target: UniProt Q8I2W3
UniProt Q7KQL8 = target: UniProt Q7KQL8
UniProt Q8I3J5 = target: UniProt Q8I3J5
UniProt Q8IEM3 = target: UniProt Q8IEM3
UniProt A0A144A2H0 = target: UniProt A0A144A2H0
UniProt Q8I5F4 = target: UniProt Q8I5F4
UniProt P46468 = target: UniProt P46468
UniProt C6KT50 = target: UniProt C6KT50
UniProt C0H4M6 = target: UniProt C0H4M6
UniProt Q76NM3 = target: UniProt Q76NM3
UniProt Q8I586 = target: UniProt Q8I586
UniProt Q8IB78 = target: UniProt Q8IB78
UniProt Q8IIB7 = target: UniProt Q8IIB7
UniProt O97313 = target: UniProt O97313
UniProt Q8IAX5 = target: UniProt Q8IAX5
UniProt P27362 = target: UniProt P27362
UniProt Q8IEU2 = target: UniProt Q8IEU2
UniProt C6KT18 = target: UniProt C6KT18
UniProt Q8I3T5 = target: UniProt Q8I3T5
UniProt Q8IJN3 = target: UniProt Q8IJN3
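Further: native unpurified kinases from lysate captured on beads bearing immobilized kinase inhibitors, with bead-bound kinases quantified by mass spectrometry across compound doses.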

Sequence of UniProt P62344 (P62344 whole entry, looked up): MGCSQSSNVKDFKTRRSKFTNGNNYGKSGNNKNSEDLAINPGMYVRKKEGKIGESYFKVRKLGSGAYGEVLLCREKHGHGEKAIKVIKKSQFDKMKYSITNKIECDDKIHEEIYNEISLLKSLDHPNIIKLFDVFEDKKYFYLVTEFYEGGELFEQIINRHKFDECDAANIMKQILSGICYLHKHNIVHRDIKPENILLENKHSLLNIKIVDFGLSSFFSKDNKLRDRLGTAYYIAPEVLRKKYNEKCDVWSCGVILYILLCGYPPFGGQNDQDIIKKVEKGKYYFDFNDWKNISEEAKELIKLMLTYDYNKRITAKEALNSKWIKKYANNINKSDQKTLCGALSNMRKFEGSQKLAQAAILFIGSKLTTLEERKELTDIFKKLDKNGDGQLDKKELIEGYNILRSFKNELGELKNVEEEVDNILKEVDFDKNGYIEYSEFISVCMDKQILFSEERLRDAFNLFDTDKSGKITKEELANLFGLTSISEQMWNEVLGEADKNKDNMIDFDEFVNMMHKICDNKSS
Sequence of UniProt C6KT50 (C6KT50 whole entry): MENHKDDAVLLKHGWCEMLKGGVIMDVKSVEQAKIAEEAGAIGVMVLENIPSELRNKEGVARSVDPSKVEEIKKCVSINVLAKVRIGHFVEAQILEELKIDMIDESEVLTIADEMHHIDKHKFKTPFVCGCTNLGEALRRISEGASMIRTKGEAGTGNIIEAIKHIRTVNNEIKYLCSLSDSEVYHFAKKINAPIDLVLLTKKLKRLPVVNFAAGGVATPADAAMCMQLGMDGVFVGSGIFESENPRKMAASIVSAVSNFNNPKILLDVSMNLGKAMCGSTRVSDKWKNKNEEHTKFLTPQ
Sequence of UniProt P27362 (P27362 whole entry): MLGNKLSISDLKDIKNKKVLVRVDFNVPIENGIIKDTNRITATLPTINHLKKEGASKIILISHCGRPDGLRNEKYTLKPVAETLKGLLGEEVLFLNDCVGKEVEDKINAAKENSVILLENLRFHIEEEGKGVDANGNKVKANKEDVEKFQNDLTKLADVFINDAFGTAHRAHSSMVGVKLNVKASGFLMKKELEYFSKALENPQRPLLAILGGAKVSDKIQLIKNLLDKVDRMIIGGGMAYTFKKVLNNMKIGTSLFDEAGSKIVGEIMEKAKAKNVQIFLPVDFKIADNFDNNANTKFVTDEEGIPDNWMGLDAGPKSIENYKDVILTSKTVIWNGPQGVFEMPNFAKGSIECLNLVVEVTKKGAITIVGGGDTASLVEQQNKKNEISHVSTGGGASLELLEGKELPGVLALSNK
Sequence of UniProt P46468 (P46468 whole entry): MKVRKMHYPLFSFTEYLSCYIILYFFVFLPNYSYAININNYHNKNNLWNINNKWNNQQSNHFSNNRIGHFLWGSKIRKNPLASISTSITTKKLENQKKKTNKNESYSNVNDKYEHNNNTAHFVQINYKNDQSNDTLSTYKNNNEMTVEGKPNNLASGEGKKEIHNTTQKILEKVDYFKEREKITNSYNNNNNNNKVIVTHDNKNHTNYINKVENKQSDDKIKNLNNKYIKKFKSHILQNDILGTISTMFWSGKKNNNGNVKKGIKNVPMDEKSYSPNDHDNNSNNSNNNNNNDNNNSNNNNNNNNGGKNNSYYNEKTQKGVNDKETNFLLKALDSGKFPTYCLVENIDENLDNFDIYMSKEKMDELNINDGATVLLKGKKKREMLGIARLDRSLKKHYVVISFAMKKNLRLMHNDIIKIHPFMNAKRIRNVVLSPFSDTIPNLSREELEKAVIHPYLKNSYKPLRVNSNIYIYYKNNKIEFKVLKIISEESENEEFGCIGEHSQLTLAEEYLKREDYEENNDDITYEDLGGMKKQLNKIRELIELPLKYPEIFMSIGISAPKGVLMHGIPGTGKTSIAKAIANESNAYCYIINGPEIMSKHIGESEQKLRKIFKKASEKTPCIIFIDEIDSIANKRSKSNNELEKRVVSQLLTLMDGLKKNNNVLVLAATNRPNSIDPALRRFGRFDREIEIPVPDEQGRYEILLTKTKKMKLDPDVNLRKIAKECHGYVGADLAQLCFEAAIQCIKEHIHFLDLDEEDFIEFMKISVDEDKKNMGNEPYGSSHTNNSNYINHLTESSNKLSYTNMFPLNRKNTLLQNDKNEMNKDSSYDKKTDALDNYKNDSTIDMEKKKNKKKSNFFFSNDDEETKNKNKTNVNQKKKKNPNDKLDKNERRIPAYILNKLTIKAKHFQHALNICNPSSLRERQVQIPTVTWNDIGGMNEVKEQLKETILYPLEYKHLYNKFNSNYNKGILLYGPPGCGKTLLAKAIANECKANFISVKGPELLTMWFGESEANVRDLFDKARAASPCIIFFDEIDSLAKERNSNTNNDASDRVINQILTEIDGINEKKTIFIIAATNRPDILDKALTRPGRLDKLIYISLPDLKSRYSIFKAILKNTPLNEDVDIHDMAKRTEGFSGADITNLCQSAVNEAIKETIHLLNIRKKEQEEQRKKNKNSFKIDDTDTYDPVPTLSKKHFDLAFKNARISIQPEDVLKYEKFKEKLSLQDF
Sequence of UniProt A0A144A2H0 (A0A144A2H0 whole entry): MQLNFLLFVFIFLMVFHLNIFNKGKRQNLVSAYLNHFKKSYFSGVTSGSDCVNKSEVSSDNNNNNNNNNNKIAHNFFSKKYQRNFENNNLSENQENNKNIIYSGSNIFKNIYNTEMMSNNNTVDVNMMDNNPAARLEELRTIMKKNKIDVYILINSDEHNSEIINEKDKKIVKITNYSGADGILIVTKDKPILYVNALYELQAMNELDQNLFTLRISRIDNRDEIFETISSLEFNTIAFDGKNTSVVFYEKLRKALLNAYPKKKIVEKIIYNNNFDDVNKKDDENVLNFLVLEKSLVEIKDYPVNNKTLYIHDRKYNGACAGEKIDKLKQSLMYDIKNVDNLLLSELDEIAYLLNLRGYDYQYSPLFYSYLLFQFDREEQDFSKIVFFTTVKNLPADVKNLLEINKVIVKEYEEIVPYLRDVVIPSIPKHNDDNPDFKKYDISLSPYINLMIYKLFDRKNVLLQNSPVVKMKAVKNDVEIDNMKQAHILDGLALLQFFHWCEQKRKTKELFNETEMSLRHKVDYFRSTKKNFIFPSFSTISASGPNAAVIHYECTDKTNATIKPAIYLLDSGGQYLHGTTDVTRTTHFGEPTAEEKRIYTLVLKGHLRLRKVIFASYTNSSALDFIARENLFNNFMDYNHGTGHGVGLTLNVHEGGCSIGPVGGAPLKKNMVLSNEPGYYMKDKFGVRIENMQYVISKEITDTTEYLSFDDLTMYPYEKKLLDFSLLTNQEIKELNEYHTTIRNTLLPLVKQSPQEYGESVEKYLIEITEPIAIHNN
Sequence of UniProt O97313 (O97313 whole entry): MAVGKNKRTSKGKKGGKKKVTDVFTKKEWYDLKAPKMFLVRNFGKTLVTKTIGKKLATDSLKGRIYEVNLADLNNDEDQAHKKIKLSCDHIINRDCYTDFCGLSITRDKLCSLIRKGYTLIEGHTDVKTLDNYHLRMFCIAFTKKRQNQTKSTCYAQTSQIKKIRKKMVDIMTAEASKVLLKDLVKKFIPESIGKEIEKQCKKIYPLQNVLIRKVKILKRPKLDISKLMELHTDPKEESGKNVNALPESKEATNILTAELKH
Sequence of UniProt Q7KQL8 (Q7KQL8 whole entry): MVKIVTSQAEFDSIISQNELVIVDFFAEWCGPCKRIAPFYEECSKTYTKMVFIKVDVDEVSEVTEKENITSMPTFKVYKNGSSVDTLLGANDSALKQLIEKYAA

O=c1[nH]c2ccc(Cl)cc2c(NC2CN3CCC2CC3)c1-c1nc2ccccc2[nH]1 (stereo unspecified) [CHIR-124]
IC50 (UniProt Q8II60): > 20 µM | IC50 (UniProt Q8I4Z4): > 20 µM | IC50 (UniProt Q8IBI0): > 20 µM | IC50 (UniProt P62344): < 0.0823 µM | IC50 (UniProt Q8IHT4): > 20 µM | IC50 (UniProt C0H570): > 20 µM | IC50 (UniProt Q8I5X8): > 20 µM | IC50 (UniProt C6KTB1): > 20 µM | IC50 (UniProt Q8IHR5): > 20 µM | IC50 (UniProt Q8IIV2): > 20 µM | IC50 (UniProt Q8IIM4): > 20 µM | IC50 (UniProt Q8I5Q6): > 20 µM | IC50 (UniProt Q8I320): > 20 µM | IC50 (UniProt Q8I415): > 20 µM | IC50 (UniProt O97256): > 20 µM | IC50 (A0A146LZZ4): > 20 µM | IC50 (UniProt Q8IDZ2): > 20 µM | IC50 (UniProt Q8I5X7): > 20 µM | IC50 (UniProt Q8I3Y9): > 20 µM | IC50 (UniProt Q8IBQ9): > 20 µM | IC50 (UniProt Q8IKM5): > 20 µM | IC50 (UniProt Q8I2X4): > 20 µM | IC50 (UniProt Q8I510): > 20 µM | IC50 (UniProt Q8IE41): 0.375 µM | IC50 (UniProt Q8IJG6): > 20 µM | IC50 (UniProt C0H4P4): > 20 µM | IC50 (UniProt Q8IKA6): > 20 µM | IC50 (UniProt Q8I3Z1): > 20 µM | IC50 (UniProt Q8I0U7): > 20 µM | IC50 (UniProt Q8IJR8): 0.649 µM | IC50 (UniProt Q8ILP6): > 20 µM | IC50 (UniProt Q8I2W3): > 20 µM | IC50 (UniProt Q7KQL8): > 20 µM | IC50 (UniProt Q8I3J5): > 20 µM | IC50 (UniProt Q8IEM3): > 20 µM | IC50 (UniProt A0A144A2H0): > 20 µM | IC50 (UniProt Q8I5F4): > 20 µM | IC50 (UniProt P46468): > 20 µM | IC50 (UniProt C6KT50): > 20 µM | IC50 (UniProt C0H4M6): > 20 µM | IC50 (UniProt Q76NM3): > 20 µM | IC50 (UniProt Q8I586): > 20 µM | IC50 (UniProt Q8IB78): > 20 µM | IC50 (UniProt Q8IIB7): > 20 µM | IC50 (UniProt O97313): > 20 µM | IC50 (UniProt Q8IAX5): > 20 µM | IC50 (UniProt P27362): > 20 µM | IC50 (UniProt Q8IEU2): > 20 µM | IC50 (UniProt C6KT18): > 20 µM | IC50 (UniProt Q8I3T5): > 20 µM | IC50 (UniProt Q8IJN3): > 20 µM
